Results: patent EP2068152A1, “c-Kit as a novel target for the treatment of pain” (Max-Delbrück-Centrum für Molekulare Medizin (MDC), priority 2007, dated 2009)

Assays:
Aβ mechanoreceptors = settings: animals treated as adults with imatinib
c-Kit = experiment: Paw withdrawal test (radiant heat); assay type: in vivo, mice
Procedure: Paw withdrawal test. In the radiant paw-withdrawal test the mice were placed in a Plexiglas chamber (15 cm diameter, 22.5 cm in height). The stimulus was a high intensity beam directed at the plantar surface of the hindpaw; movement of the paw away from the beam results in the heat source being terminated, with the withdrawal latency indicated on a digital screen (Ugo Basile, Milan, Italy). Paw withdrawal latencies were determined alternately from both hindpaws (stimuli given every 30- 40 s). Criteria for inclusion of a data point were calm behavior of the mouse just prior to testing, and a clear paw withdrawal from the hot beam associated with paw flicking and grooming. Baseline values were taken once a day at the same time for a period of 3 days. c-Kit ligand (Stem Cell Factor, SCF, R&D Systems) was injected once intraperitoneally (1 mg/kg i.p.) into TRPV1 -l- and control C57B1/6 mice (adult females, 6- 8 weeks, 20-25 g body weight), and response latencies to radiant heating of the hind paw was measured at various times after injection as described.
The inventors therefore used the mast cell degranulating agent 48/80 to deplete resident mast cells of neuroactive substances prior to the administration of SCF.

C-fiber nociceptors = experiment: In vitro skin nerve preparation: noxious heat response of CMH fibers from treated mice; assay type: in vivo
Procedure: The conduction velocity cut-off between Aβ and Aδ fibers was determined to be 9 m/s in c-Kit mutants based on measurements of the Aβ and Aδ wave in compound action potential recordings as previously described (Koltzenburg et al., 1997).

With `Cc1ccc(NC(=O)c2ccc(CN3CCN(C)CC3)cc2)cc1Nc1nccc(-c2cccnc2)n1` [imatinib, 4-[(4-Methyl-1-piperazinyl)methyl]-N-[4-methyl-3-[[4-(3-pyridinyl)-2-pyrimidinyl]amino]-phenyl]benzamide] the “proportion of RAM and SAM receptors” value (Aβ mechanoreceptors) was “no change in proportion of RAM and SAM receptors”, the “foot withdrawal latency to noxious heat” value (c-Kit; 5 days after daily imatinib treatment, 0.1 mg/g sub-cutaneously, n=6, vehicle treated mice 129 ±35%) was 160 ±39 % of starting values and the “thermal hyperalgesia after SCF in pre-treated mice” value (c-Kit; two subcutaneous injections (0.1 mg/g) 18 hrs and 1 hr before SCF (1 µg/g, i.p.)) was “did not display any significant thermal hyperalgesia”. For the same compound, the C-fiber heat sensitivity (C-fiber nociceptors; imatinib 0.1 mg/g sub-cutaneously for 6-7 days) was “reduction in C-fiber heat sensitivity that was almost identical to that found in c-Kit^-/- and c-Kit^+/- mice”, the “number of spikes per 1 second time window during the heat ramp (CMH fibers), curve versus control” value (C-fiber nociceptors; imatinib treated adult mice, heat ramp 32°C to 60°C, Two way ANOVA F=7.67 p<0.01) was “significantly different from control” and the “fibers with responses >60 spikes/stimulus (high responders)” value (C-fiber nociceptors; imatinib treated mice, figure stated together with c-kit mutant mice, control C-fibers 47%) was ~16%.
